{"source": "patent US6458838B1", "about": "“Adrenoleukodystrophy treatments” (Johns Hopkins University, priority 1999, dated 2002)", "key": {"[1]": {"test_system": "human primary fibroblasts", "experiment": "Toxicity of 4-PBA concentration in culture", "type": "cell-based", "details": "data not shown", "excerpt": "(§1) The genotypes of the X-ALD patients included missense, nonsense, frame shift and deletion mutations and all of the main clinical phenotypes."}, "[2]": {"test_system": "mouse primary fibroblasts", "experiment": "Toxicity of 4-PBA concentration in culture", "type": "cell-based", "details": "data not shown", "excerpt": "as §1"}, "[3]": {"test_system": "X-ALD mouse primary fibroblasts", "experiment": "C24:0 β-oxidation activity ([1-14C]-C24:0 to water-soluble products)", "type": "cell-based", "details": "5 mM 4PBA for 6 days", "protocol": "(§2) Human Tibroblast C24:0 β-oxidation increased from 25% to 48% of normal; human lymphobfastoid cells, from 18% to 53% of normal; and mouse fibroblasts, from 15% to 29% of normal. […] There are several possible mechanisms that could account for the action of 4-PBA in X-ALD.\n(§3) Cell culture and 4-PBA treatment. Cell lines derived from X-ALD patients and X-ALD mice were grown in MEM (fibroblasts) or RPMI (ymphoblastoid cells) supplemented with fetal calf serum (10%), penicillin (100 U/ml), streptomycin (100 U/mi) and glutamine (2 mM). […] Cells in the second flask were grown without drug for the same length of time and served as controls. The media were changed every 3-4 days.\n(§4) Biochemical measurements. […] For VLCFA measurements, total lipids were extracted, converted to methyl esters, purified by TLC and subjected to capillary GC analysis as described. Duplicate assays were set up independently and were assayed on different days. C24:0 β-oxidation activity of human and mouse fibroblasts and human lymphoblastoid cells was determined by measuring their capacity to degrade [1-^14C]-C24:0 fatty acid (American Radiolabeled Chemicals, St Louis, Mo.) to water-soluble products as described. Phytanic acid oxidation was measured as described. Cells were incubated with [2,3-^3H]-phytanic acid for 24 hours, and the release of ^3H-H2O to the aqueous medium was determined (activity in pmol/hr per mg protein)."}, "[4]": {"test_system": "X-ALD human primary fibroblasts", "experiment": "C24:0 β-oxidation activity ([1-14C]-C24:0 to water-soluble products)", "type": "cell-based", "protocol": "as §2, §3, §4"}, "[5]": {"test_system": "X-ALD human lymphoblastoid cells", "experiment": "C24:0 β-oxidation activity ([1-14C]-C24:0 to water-soluble products)", "type": "cell-based", "details": "5 mM 4PBA for 6 days", "protocol": "as §2, §3, §4"}, "[6]": {"test_system": "patients with urea cycle disorders", "details": "used for many years; cited from earlier work"}, "Pex11α": {"test_system": "Pex11α", "experiment": "Semi-quantitative RT-PCR in primary fibroblasts", "type": "cell-based", "protocol": "Semi-quantitative RT-PCR analysis. Total RNA from tissue culture cells (10^6-10^7 cells/sample) was isolated using TRizol Reagent™ (Life Technologies), treated with DNase I (100-200 units in 40 mM HCI, 10 mM NaCl, 6 mM MgCl2, pH 7.3), incubated at 37° C. for 30 min, extracted with phenol/chloroform, and precipitated with isopropanol. cDNA was generated using MMLV reverse transcriptase (RT) (Life Technologies). PCR was done in the linear range of amplification (determined for each primerpair-cDNA combination). For each cDNA sample, a ‘cocktail’ was prepared, containing PCR buffer (Promega), 200 µM of each DNTP, 1.5 mM MgCl2, 250 ng cDNA, 0.25 U of Taq polymerase (Promega) and […]. The ‘cocktail’ was divided into separate tubes containing cDNA specific primers.\nPrimers. The PCR primers used are listed below. In the parentheses, h indicates human and m, mouse; this is followed by the gene name, product size and annealing temperature. For primer sequences, F is forward and R is reverse. […]"}, "[7]": {"test_system": "human lymphoblastoid cells (EBV-transformed lymphocytes) derived from X-ALD patients", "experiment": "VLCFA (C24:0, C26:0) levels in cultured cells, capillary GC", "type": "cell-based", "details": "for C26:0 Percent Correction: 5 mM 4PBA", "protocol": "as §1\nas §3, with “Cell” for “Cell culture and 4-PBA treatment. Cell”\nas §4"}, "X-ALD mice": {"test_system": "X-ALD mice", "experiment": "In vivo efficacy: VLCFA levels in brain and adrenal glands after dietary 4-PBA", "design": "species or system mouse", "protocol": "To measure the in vivo efficacy of 4-PBA, we supplemented mouse chow and water with 4-PBA.\nAMN and Addison-only. […] In vivo delivery of 4-PBA to X-ALD mice. 4-PBA was delivered to X-ALD mice in their regular chow and water. 4-PBA chow was prepared by B'OServ (Holton Industries, Frenchtown, N.J.). […] Brains and adrenal glands from normal LD and X-ALD/4-PBA mice were collected for VLCFA analysis as described.\nas §4"}}, "note": "Values joined by “and” are separate entries in the source; they are usually repeats but may differ in a detail not shown here. Equal entries are not always repeated. “Also recorded” adds a separate entry of the source.", "data": [{"smiles": "O=C(O)CCCc1ccccc1", "note": "[4-PBA, 4-Phenyl butyrate]", "values": [{"measurement": "concentrations toxic for cells", "setting": "[1]", "value": "exceeding 7.5 mM"}, {"measurement": "concentrations toxic for cells", "setting": "[2]", "value": "exceeding 7.5 mM"}, {"measurement": "C24:0 β-oxidation, Increase (treated vs untreated)", "setting": "[3]", "value": 1.87, "unit": "fold"}, {"measurement": "increase in C24:0 β-oxidation", "setting": "[4]; 5 mM 4-PBA for 6 days, all X-ALD cell lines tested (human and mouse)", "value": "twofold to threefold increase"}, {"measurement": "C24:0 β-oxidation, Increase (treated vs untreated)", "setting": "[4]; 5 mM 4PBA for 6 days", "value": 1.95, "unit": "fold"}, {"measurement": "C24:0 β-oxidation, Increase (treated vs untreated)", "setting": "[5]", "value": 2.92, "unit": "fold"}, {"measurement": "side effects", "setting": "[6]", "value": "few, if any, side effects"}, {"measurement": "Pex11α expression", "setting": "Pex11α; human fibroblasts, 5 mM 4-PBA, after 2 days", "value": "substantial increase"}, {"measurement": "Pex11α transcripts", "setting": "Pex11α; normal or X-ALD mouse fibroblasts, before or after 10 day exposure to 5 mM 4-PBA, data not shown", "value": "undetectable"}, {"measurement": "time of treatment until C24:0 and C26:0 levels were normalized", "setting": "[7]; 5 mM 4-PBA", "value": "≤ 10", "unit": "days"}, {"measurement": "C26:0 Percent Correction", "setting": "[7]; exposure 6 days", "value": 71, "unit": "%"}, {"measurement": "C26:0 Percent Correction", "setting": "[7]; exposure 10 days", "value": 90, "unit": "%"}, {"measurement": "adrenal gland VLCFA (C24:0 and C26:0) levels", "setting": "X-ALD mice; dietary 4-PBA for 4 weeks", "value": "substantial reduction"}, {"measurement": "brain VLCFA (C24:0 and C26:0) levels", "setting": "X-ALD mice; dietary 4-PBA for 4 weeks", "value": "substantial reduction"}, {"measurement": "correction of brain C24:0 level", "setting": "X-ALD mice; dietary 4-PBA for 6 weeks", "value": "complete correction; also recorded: complete normalization"}, {"measurement": "correction of brain C26:0 level", "setting": "X-ALD mice; dietary 4-PBA for 6 weeks", "value": "78% and 80%"}]}]}
